Data: PMC4830892, “A microarray-based approach to evaluate the functional significance of protein-binding motifs” (Analytical and Bioanalytical Chemistry, 2016)
Non-standard residues stand in square brackets, D forms with d. Residues, ends and D or L forms follow the SMILES beside them. pY = N[C@@H](Cc1ccc(OP(=O)(O)O)cc1)C(=O)O

Key:
[1] = tested on: α-phosphotyrosine antibody (α-pTyr 100); assay: Titration of α-pY antibody on peptide microarrays; assay type: binding; conditions: for affinity of the α-pY antibody (in words): compared with the other pY peptides; for Kd: peptide microarray, α-pY antibody 0.06 to 6.66 nM, 3 h at 4 °C, indirect immunofluorescence (Alexa633), bimolecular binding isotherm (Eq. 1), average ± standard deviation, six independent experiments
Protocol: (§1) Peptides that correspond to known interaction motifs involved in the formation of protein complexes in T cell signalling were purchased from EMC microcollections (Tübingen, Germany). All peptides carried an extra cysteine residue and a free N-terminus for immobilisation on the microarray substrates and a C-terminal amidation (see Electronic Supplementary Material (ESM), Table S1).
(§2) For generation of microarrays, peptide stock solutions (3 mM) in DMF were diluted 30 times with phosphate buffer (100 mM, pH 8) supplemented with 0.006 % (v/v) Triton X-100. N-Hydroxysuccinimide-preactivated slides served as substrates for immobilisation (Nexterion Slide H, Schott Nexterion/Peq-Lab, Erlangen, Germany) using a Nano-Plotter NP2.0 (GeSIM, Großerkmannshof, Germany), which employs piezo-driven pipetting tips to dispense peptide solutions. Microarray slides comprised 16 subarrays of doublets of each peptide. For each peptide, a volume of 1.2 nl was dispensed at a centre-to-centre spacing of 500 μm. During printing, temperature was maintained at 15 °C and air humidity at 65 %.
(§3) Sixteen incubation chambers with identical subarrays consisting of peptides derived from binding motifs of signalling proteins (see ESM Table S1) were generated by attaching a clip-on frame to the microarray substrate (ProPlate Multiarray System, Grace Biolabs, Molecular Probes, Eugene, OR, USA). The typical incubation volume for the subarrays was 50 μl. Microarrays were either incubated with an α-pY antibody (α-pTyr 100, 9411, Cell Signalling, Frankfurt am Main, Germany) at the indicated concentrations or co-incubated with cell lysate at the indicated concentrations for 3 h at 4 °C. Additionally, in another set of experiments, recombinant GRB2-SH2 was incubated on microarrays alone or co-incubated with cell lysate employing an α-penta HIS antibody (34600, Qiagen, Hilden, Germany) for the detection of His-tagged GRB2-SH2.
(§4) After incubation, microarrays were washed three times with washing buffer (PBS, 0.05 % (w/v) BSA, 0.05 % (w/v) Tween-20). For the detection of signals, microarrays were incubated with a secondary α-mouse antibody conjugated with Alexa633 (A-21050, Invitrogen) at a concentration of 1 μg/ml for 15 min at RT followed by a last washing step with washing buffer. Microarrays were dried with nitrogen and scanned using a ProScanArray (PerkinElmer Life Sciences, Waltham, Massachusetts), and the data were analysed using ArrayPro Analyzer software (Media Cybernetics, Silver Spring, USA) as described before. Final data represented the mean signal intensities corrected for the median of a ring-shaped local background surrounding the respective peptide spot. Titrations with α-pY antibody and GRB2-SH2 were performed to calculate dissociation constants (see below).
The resulting titration curves were fitted with Origin (OriginLab Corporation, v.6.1057, Northampton, USA) using a binding isotherm for a bimolecular interaction (Eq. 1):1 Fabs=Fmaxprot/Kd+prot Fabs represents the intensity of a microarray spot after background correction and [prot] the concentration of the titrated binder. Kd and Fmax were obtained from the fits.
To render this approach quantitative, first the affinities of the α-pY antibody towards the phosphotyrosine motifs of the microarrays were determined. […] The titration curves were fitted with a binding isotherm for a bimolecular interaction (Eq. 1, Fig. 2a, Table 1). In general, a coefficient of determination (R^2) of 0.8 was used as a cutoff in order to score a peptide as a binder. […] Regarding the poly-proline motif (PP) containing peptides present on the microarray, only on the peptide GAB2-509 in five experiments, a titration curve with an R^2 > 0.8 could be generated.

[2] = tested on: proteins in Jurkat cell lysate (total cellular proteome); assay: Competition of α-pY antibody binding with Jurkat cell lysate on peptide microarrays; conditions: for Kd: from EC50 and Kd α-pY by Cheng-Prusoff equation (Eq. 4), ± standard deviation
Protocol: as §1, §2
(§5) Jurkat T cell leukaemia cells were maintained in RPMI 1640 medium (PAN-Biotech, Aisenbach, Germany) supplemented with 10 % foetal calf serum at 37 °C in 5 % CO2. For the preparation of lysates, cells were resuspended in lysis buffer (1 % Triton X-100, 50 mM n-octyl-D-glucopyranoside (Fluka, Taufkirchen, Germany), 20 mM Tris, 1 mM EDTA, 150 mM NaCl, 1 mM Na3VO4, pH 7.5, and complete protease inhibitor cocktail (Roche Applied Science, Mannheim, Germany)). Incubation on ice for 1 h was followed by centrifugation at 20,000×g at 4 °C for 15 min to remove cell debris. Transmembrane proteins were extracted from lipid rafts by using N-octyl-D-glucopyranoside. Protein concentrations were measured by Bradford Assay.
as §3, §4
For determination of EC50 values for competition with cell lysate, curves were fitted according to2 y=y0+Ae^−x/t with y0 as the signal intensity of the α-pY antibody or the recombinant GRB2-SH2 domain without cell lysate, A the amplitude, x the protein concentration in lysate, and t the decay constant. […]

[3] = tested on: proteins in Jurkat cell lysate (total cellular proteome); assay: Competition of recombinant GRB2-SH2 binding with cell lysate on peptide microarrays
Protocol: as §5
The PCR product of the SH2 domain of GRB2 (GRB2-SH2) was cloned into the pET160/GW/D-TOPO vector (Invitrogen, Breda, The Netherlands), which contains a region encoding for a His-tag. The plasmid was used to perform a transformation into One Shot TOP10 competent cells (Invitrogen). […] The concentration of expressed protein was determined by photometric measurements at OD280. The concentration of GRB2-SH2 was determined in Western blots by quantitatively analysing obtained bands of purified GRB2-SH2 in an Odyssey Infrared Imaging System (Li-Cor Biosciences, Bad Homburg, Germany) in comparison with a bovine serum albumin (BSA) standard. […]

[4] = tested on: SH2 domain of GRB2 (GRB2-SH2); conditions: cited from earlier work; for binding to GRB2 / GRB2-SH2 (in words): Kd values of GRB2-SH2 described in recently published manuscript, ref [14]
Source text: In contrast, the data points for LATpY191 and SHP1pY564, and SigpY437, ZAPpY319 and CDζpY72/83 were above or below the linear correlation defined by the first four peptides. […] SigpY437, in contrast, is a poor binder for which already low concent ...

SMILES	affinity of the α-pY antibody (in words) [1]	Kd [1] [µM]	Kd [2] [µM]	loss of signal of the α-pY antibody on competition with cell lysate ([2]; result in words, Jurkat lysate up to 180 μM total protein)	competition of GRB2-SH2 by cell lysate (in words) [3]	affinity for the SH2 domain of GRB2 (in words) ([4]; ref [25], [26])	binding to GRB2 / GRB2-SH2 (in words) [4]
CC(C)C[C@H](NC(=O)[C@H](CCC(=O)O)NC(=O)[C@H](CCC(N)=O)NC(=O)[C@H](CO)NC(=O)[C@@H](NC(=O)[C@H](CC(N)=O)NC(=O)[C@@H](NC(=O)[C@H](Cc1ccc(OP(=O)(O)O)cc1)NC(=O)[C@H](CCC(=O)O)NC(=O)[C@H](CCCNC(=N)N)NC(=O)[C@H](CO)NC(=O)CNC(=O)[C@H](CC(=O)O)NC(=O)[C@H](CC(C)C)NC(=O)[C@H](CO)NC(=O)[C@H](C)NC(=O)[C@H](CCC(=O)O)NC(=O)[C@@H](N)CS)C(C)C)C(C)C)C(N)=O [LATpY191] (H-CEASLDGSRE[pY]VNVSQEL-NH2)	high affinity	0.00035 ± 0.00028	16 ± 15	total loss of signal	rather small competition	strong affinity	
CC[C@H](C)[C@H](NC(=O)[C@H](CCC(=O)O)NC(=O)[C@H](CCCNC(=N)N)NC(=O)[C@H](CCC(=O)O)NC(=O)[C@H](CCC(=O)O)NC(=O)CNC(=O)[C@@H](N)CS)C(=O)N[C@@H](CCC(N)=O)C(=O)N[C@@H](Cc1ccc(OP(=O)(O)O)cc1)C(=O)N[C@@H](C)C(=O)N1CCC[C@H]1C(=O)N[C@@H](CC(C)C)C(=O)N[C@@H](CO)C(=O)N[C@@H](Cc1ccccc1)C(=O)N[C@@H](Cc1c[nH]cn1)C(=O)N[C@@H](CCCCN)C(=O)NCC(N)=O [SigpY437] (H-CGEEREIQ[pY]APLSFHKG-NH2)		0.00066 ± 0.00046	22 ± 20		already low concentrations of lysate show full competition		poor binder
CC[C@H](C)[C@H](NC(=O)[C@H](CCCNC(=N)N)NC(=O)[C@H](C)NC(=O)[C@@H]1CCCN1C(=O)[C@H](CCC(=O)O)NC(=O)[C@@H]1CCCN1C(=O)[C@@H](NC(=O)[C@H](Cc1ccc(OP(=O)(O)O)cc1)NC(=O)CNC(=O)[C@H](CC(=O)O)NC(=O)[C@H](CO)NC(=O)[C@H](CC(N)=O)NC(=O)[C@H](CC(C)C)NC(=O)[C@@H](NC(=O)[C@H](CC(=O)O)NC(=O)[C@@H](NC(=O)[C@@H](N)CS)[C@@H](C)CC)[C@@H](C)O)[C@@H](C)O)C(=O)N[C@H](C(N)=O)[C@@H](C)O [ZAPpY296] (H-CIDTLNSDG[pY]TPEPARIT-NH2)	relatively low affinity	0.00132 ± 0.00059	27 ± 28				good binder
CSCC[C@H](NC(=O)[C@@H]1CCCN1C(=O)[C@H](CC(N)=O)NC(=O)[C@H](C)NC(=O)[C@H](CCC(=O)O)NC(=O)[C@@H](NC(=O)[C@H](Cc1ccc(OP(=O)(O)O)cc1)NC(=O)[C@H](Cc1ccccc1)NC(=O)CNC(=O)[C@@H]1CCCN1C(=O)[C@H](CC(N)=O)NC(=O)[C@H](CCCNC(=N)N)NC(=O)CNC(=O)[C@H](CCC(=O)O)NC(=O)[C@@H](N)CS)C(C)C)C(=O)N1CCC[C@H]1C(=O)N[C@H](C(N)=O)[C@@H](C)O [PLCγpY783] (H-CEGRNPGF[pY]VEANPMPT-NH2)		0.00055 ± 0.00033	7 ± 2				good binder
